Literature values as cited in patent publication US10729636B2, “Compositions comprising peptide [sequence]” (NURITAS LIMITED, priority 2016, dated 2020).
Like-named read-outs stand apart in the source and are kept apart here.

Tests used:
[1] = cited from earlier work
lipoproteins = details: binding to lipoproteins; cited from earlier work
[2] = humans who took more vitamin E on a regular basis vs those who took less; study on nurses; cited from earlier work

Row | Molecule | half-life ([1]; in words) | half-life ([1]; in humans) | also measured
1 | CCNC(=O)[C@@H]1CCCN1C(=O)[C@H](CCCNC(=N)N)NC(=O)[C@H](CC(C)C)NC(=O)[C@@H](COC(C)(C)C)NC(=O)[C@H](Cc1ccc(O)cc1)NC(=O)[C@H](CO)NC(=O)[C@H](Cc1c[nH]c2ccccc12)NC(=O)[C@H](Cc1cnc[nH]1)NC(=O)[C@@H]1CCC(=O)N1 [buserelin] | much longer |  | 
2 | C[C@@H](O)[C@@H]1NC(=O)[C@H](CCCCN)NC(=O)[C@@H](Cc2c[nH]c3ccccc23)NC(=O)[C@H](Cc2ccccc2)NC(=O)[C@@H](NC(=O)[C@H](N)Cc2ccccc2)CSSC[C@@H](C(=O)N[C@H](CO)[C@@H](C)O)NC1=O [octreotide] |  | about 100 min | fraction unbound (lipoproteins): 0.65
3 | NC(=O)CC[C@@H]1NC(=O)[C@H](Cc2ccccc2)NC(=O)[C@H](Cc2ccc(O)cc2)NC(=O)[C@@H](N)CSSC[C@@H](C(=O)N2CCC[C@H]2C(=O)N[C@@H](CCCN=C(N)N)C(=O)NCC(N)=O)NC(=O)[C@H](CC(N)=O)NC1=O [vasopressin] |  | 10 to 35 min | 
4 | gonadotropin-releasing hormone | very short |  | 
5 | vitamin E |  |  | lower incidence of heart disease [2]: 41%
